From ChEMBL document CHEMBL3860109, “Benzenesulfonamides Incorporating Flexible Triazole Moieties Are Highly Effective Carbonic Anhydrase Inhibitors: Synthesis and Kinetic, Crystallographic, Computational, and Intraocular Pressure Lowering Investigations” (J Med Chem, 2016) come the findings set out here.

Assay [1] has as its target Carbonic anhydrase 9 (Homo sapiens, UniProt Q16790).
Description: Inhibition of human carbonic anhydrase 9 pre-incubated for 15 mins by stopped flow carbon dioxide hydrase assay
The species entered for assay [2] is Oryctolagus cuniculus. The assay is described as follows: Reduction in intraocular pressure in New Zealand albino rabbit model of hypertonic saline-induced ocular hypertension at 1 to 2% instilled immediately after hypertonic saline injection measured after 2 hrs post dose. The class given is functional, Eye.
Assay [3] deals with Carbonic anhydrase 2 (Homo sapiens, UniProt P00918). The assay is described as follows: Inhibition of human carbonic anhydrase 2 pre-incubated for 15 mins by stopped flow carbon dioxide hydrase assay.
In assay [4] the target is Carbonic anhydrase 1 (Homo sapiens, UniProt P00915). As to the kind of experiment: Inhibition of human carbonic anhydrase 1 pre-incubated for 15 mins by stopped flow carbon dioxide hydrase assay.
Chain of Carbonic anhydrase 1 (P00915 whole entry): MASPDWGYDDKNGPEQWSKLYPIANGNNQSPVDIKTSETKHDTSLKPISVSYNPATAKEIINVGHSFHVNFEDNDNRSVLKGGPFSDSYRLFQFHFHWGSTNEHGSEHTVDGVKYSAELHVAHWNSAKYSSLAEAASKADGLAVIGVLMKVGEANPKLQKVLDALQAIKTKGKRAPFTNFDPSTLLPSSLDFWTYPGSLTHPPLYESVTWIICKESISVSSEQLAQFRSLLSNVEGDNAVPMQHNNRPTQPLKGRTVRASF
For assay [5], the species on record is Oryctolagus cuniculus. As to the kind of experiment: Reduction in intraocular pressure in New Zealand albino rabbit model of hypertonic saline-induced ocular hypertension at 1 to 2% instilled immediately after hypertonic saline injection measured after 4 hrs post dose. The note with it: Eye. The class given is functional.

Calls of active or inactive are those of the source. The rule behind the calls is not given here.

As to `NS(=O)(=O)c1ccc(OCc2cn(-c3ccc(F)cc3)nn2)cc1`, the Ki in assay [1] stood at 16.2 nM.

With `Cc1cccc(OCc2cn(-c3ccc(S(N)(=O)=O)cc3)nn2)c1`, the Ki in assay [1] was determined as 2.3 nM.

For the compound `NS(=O)(=O)c1ccc(-n2cc(CNc3ccccc3)nn2)cc1`, the Ki in assay [1] stood at 2.2 nM. Also, the Activity in assay [2] amounted to 2 mmHg.

In assay [1], `NS(=O)(=O)c1ccc(OCc2cn(-c3ccccc3)nn2)cc1` yielded a Ki of 2.6 nM.

For the compound `NS(=O)(=O)c1ccc(-n2cc(CN(Cc3cn(-c4ccc(S(N)(=O)=O)cc4)nn3)c3ccccc3)nn2)cc1`, the Ki in assay [1] is 12.1 nM; in assay [3] it was over 10000 nM; in assay [4], over 10000 nM.

Consider `NS(=O)(=O)c1ccc(-n2cc(-c3ccccc3)nn2)cc1`, for which the Ki in assay [4] stood at 342 nM.

On to `NS(=O)(=O)c1ccc(-n2cc(COc3ccccc3)nn2)cc1`, for which the affinity in assay [1] corresponds to a Ki of 2.1 nM. The compound also returned an Activity in assay [2] of 3 mmHg. Besides, in assay [5], the outcome was Active.

In turn, `COc1cccc(-n2cc(COc3ccc(S(N)(=O)=O)cc3)nn2)c1` came in with a Ki in assay [1] of 20.5 nM.

In assay [1], `COc1ccc(OCc2cn(-c3ccc(S(N)(=O)=O)cc3)nn2)cc1` yielded a Ki of 14.3 nM.

With `NS(=O)(=O)c1ccc(OCc2cn(-c3ccc(C(F)(F)F)cc3)nn2)cc1`, the Ki in assay [1] is 23.6 nM; in assay [4], over 10000 nM.

`NS(=O)(=O)c1ccc(-n2cc(CSc3ccccc3)nn2)cc1` had a Ki in assay [1] of 2.4 nM.

The compound `NS(=O)(=O)c1ccc(OCc2cn(-c3ccc(O)cc3)nn2)cc1` returned a Ki in assay [1] of 18.7 nM.

For `COc1cccc(OCc2cn(-c3ccc(S(N)(=O)=O)cc3)nn2)c1`, the Ki in assay [1] was determined as 9.3 nM.

`NS(=O)(=O)c1ccc(-n2cc(COc3cccnc3)nn2)cc1` returned a Ki in assay [1] of 17.2 nM.
